Reference: patent US7632830B2, “Lactam compounds and pharmaceutical use thereof” (Ajinomoto Co., Inc., priority 2000, dated 2009)

tested on: adipose cells of rats; assay: Evaluation of the sugar-transporting activity (2-[14C(U)]-deoxy-D-glucose incorporation); assay type: cell-based; conditions: 100 μg/ml of each compound; evaluated on the basis of the reinforcing effect of insulin (100 nM); rat adipose cells
Method: After the decapitation and venesection of 6 male Wistar rats (body weight: 150 to 200 g), an incision was made in the abdomen of each rat to extract 6 g in total of epididymal adipose tissues. The tissues were finely cut into 2 mm×2 mm pieces in 6 ml of KRH (Krebs-Ringer Hepes, composition: 130 mM of sodium chloride, 4.7 mM of potassium chloride, 1.2 mM of potassium dihydrogenphosphate, 1.2 mM of magnesium sulfate, 1 mM of calcium chloride and 25 mM of Hepes, pH=7.6) containing 5% of BSA (bovine serum albumin). 24 mg of collagenase (type I) was added thereto and the digestion treatment was conducted for about 40 minutes to obtain about 6 ml of isolated adipose cells. The collagenase was removed by the buffer exchange. 2% BSA/KRH solution was added to the residue for the re-suspension to obtain 45 ml of an adipose cell suspension.
The sugar-transporting activity of the compounds of the present invention was evaluated with reference to a method described in a literature [Annual Review of Biochemistry, Vol. 55, p. 1059 (1986)]. In the test, 200 μl of the adipose cell suspension was poured in each polystyrene test tube, 100 μl of the solution of the test substance (by dilution of 10 mg/ml substance dimethyl sulfoxide solution with KRH) was added thereto, and the obtained mixture was shaken and then cultured at 37° C. for 30 minutes.
The sugar-transporting activity was evaluated by measuring the quantity of 2-[^14C(U)]-deoxy-D-glucose incorporated per a unit time. Namely, 2-[^14C(U)]-deoxy-D-glucose was added to the adipose cell suspension after the pre-culture (the final concentration: 0.5 μCi/sample). 5 minutes after, cytochalasin B (final concentration: 10 μM) was added to the mixture to terminate the sugar transportation. After forming a dinonyl phthalate layer, the obtained mixture was centrifuged to separate the adipose cells from the buffer. The quantity of 2-[^14C(U)]-deoxy-D-glucose contained in the adipose cell layer was determined with a liquid scintillation counter to determine the quantity of the incorporated sugar. In this evaluation system, when insulin (100 nM) having the effect of increasing the sugar transportation was used, the effect was about 7 times as high as that obtained in the insulin-free control group.
The results of the evaluation of the sugar-transporting activity obtained by using 100 μg/ml of each compound of the present invention are shown in Table 6. The sugar transporting activity in Table 6 was evaluated on the basis of the reinforcing effect of insulin (100 nM). […] The symbols in Table 6 are as follows: • No: Example No., and • A: sugar transporting activity.
The results of the evaluation of the sugar-transporting activity obtained by using each compound of the present invention are shown in Table 7. The sugar transporting activity in Table 7 was determined in terms of the concentration (EC50: μg/ml) of a test compound, having a reinforcing effect corresponding to 50% on the basis of the reinforcing effect of insulin having a reinforcing effect of 100%.

Compound | activation at 100 µg/mL
O=C1NCC2=C1[C@@H](c1ccc(OCc3ccccc3)cc1O)N[C@@H]1CCCC[C@H]1N2 [Example 38] | ≥ 70%
O=C1NCC2=C1C(c1ccc(-c3ccccc3)cc1)Nc1ccccc1N2 (stereo not shown) [Example 7] | 40 to 70%
O=C1NCC2=C1C(c1ccc(Cl)cc1Cl)Nc1ccccc1N2 (stereo not shown) [Example 20] | 20 to 40%
CCCCOc1ccc([C@H]2N[C@@H]3CCCC[C@H]3NC3=C2C(=O)NC3)c(OCCCC)c1 [Example 40] | ≥ 70%
O=C1NCC2=C1C(c1ccc(OCC34CC5CC(CC(C5)C3)C4)cc1)Nc1ccccc1N2 (stereo not shown) [Example 14] | ≥ 70%
CCCCOc1ccc(C2Nc3ccccc3NC3=C2C(=O)NC3)c(OCCCC)c1 (stereo not shown) [Example 22] | ≥ 70%
O=C1NCC2=C1C(c1ccc(OC3CCCCCC3)cc1)Nc1ccccc1N2 (stereo not shown) [Example 12] | 20 to 40%
O=C1NCC2=C1C(c1ccc(OCc3ccccc3)cc1)Nc1ccccc1N2 (stereo not shown) [Example 1] | 40 to 70%
CC(C)(C)c1ccc(C2Nc3ccccc3NC3=C2C(=O)NC3)c(Cl)c1 (stereo not shown) [Example 30] | 20 to 40%
CCCCOc1ccc(C2Nc3ccccc3NC3=C2C(=O)NC3)cc1 (stereo not shown) [Example 10] | 20 to 40%
O=C1NCC2=C1[C@@H](c1ccc(Cl)cc1)N[C@@H]1CCCC[C@H]1N2 [Example 41] | ≥ 70%
CC(=O)N1c2ccccc2NC2=C(C(=O)NC2)C1c1ccc(Br)cc1 (stereo not shown) [Example 43] | 40 to 70%
O=C1NCC2=C1C(c1ccc(OC3C4CC5CC(C4)CC3C5)cc1)Nc1ccccc1N2 (stereo not shown) [Example 13] | 40 to 70%
CC(C)(C)CC(C)(C)c1ccc(C2Nc3ccccc3NC3=C2C(=O)NC3)c(Cl)c1 (stereo not shown) [Example 31] | ≥ 70%
O=C1NCC2=C1C(c1ccc(OCCC3CCCCC3)cc1)Nc1ccccc1N2 (stereo not shown) [Example 16] | 40 to 70%

same assay, conditions: concentration having a reinforcing effect corresponding to 50% of the reinforcing effect of insulin (100%); rat adipose cells

Compound | A: sugar transporting activity (EC50)
CCC(=O)N1[C@@H]2CCCC[C@H]2NC2=C(C(=O)NC2)[C@H]1c1ccccc1C [Example 118] | 2 µg/mL
CCOCC(=O)N1[C@@H]2CCCC[C@H]2NC2=C(C(=O)NC2)[C@H]1c1ccccc1 [Example 155] | 2.7 µg/mL
Cc1ccccc1[C@@H]1C2=C(CNC2=O)N[C@@H]2CCCC[C@H]2N1C(=O)CCc1ccccn1 [Example 175] | 0.020 µg/mL
O=C1NCC2=C1[C@@H](c1ccccc1Br)N(C(=O)CC(F)(F)F)[C@@H]1CCCC[C@H]1N2 [Example 134] | 0.5 µg/mL
CCOc1ccccc1[C@@H]1C2=C(CNC2=O)N[C@@H]2CCCC[C@H]2N1C(=O)CCc1nccs1 [Example 172] | 0.060 µg/mL
COc1ccccc1[C@@H]1C2=C(CNC2=O)N[C@@H]2CCCC[C@H]2N1C(=O)CCNC(=O)OCc1ccccc1 [Example 65] | 8 µg/mL
CC(=O)N1[C@@H]2CCCC[C@H]2NC2=C(C(=O)NC2)[C@H]1c1ccccc1Br [Example 139] | 6 µg/mL
CSc1ccccc1[C@@H]1C2=C(CNC2=O)N[C@@H]2CCCC[C@H]2N1C(=O)CO [Example 164] | 2 µg/mL
COc1ccccc1[C@@H]1C2=C(CNC2=O)N[C@@H]2CCCC[C@H]2N1C(=O)CCc1ccccn1 [Example 176] | 0.021 µg/mL
CCOc1ccccc1[C@@H]1C2=C(CNC2=O)N[C@@H]2CCCC[C@H]2N1C(=O)CC [Example 88] | 1.9 µg/mL
Cc1ccccc1[C@@H]1C2=C(CNC2=O)N[C@@H]2CCCC[C@H]2N1C(=O)CO [Example 121] | 2.5 µg/mL
CCC(=O)N1[C@@H]2CCCC[C@H]2NC2=C(C(=O)NC2)[C@H]1c1ccccc1OC(C)C [Example 99] | 2 µg/mL
CCOCC(=O)N1[C@@H]2CCCC[C@H]2NC2=C(C(=O)NC2)[C@H]1c1ccc(Cl)cc1 [Example 163] | 6 µg/mL
CC(=O)N1[C@@H]2CCCC[C@H]2NC2=C(C(=O)NC2)[C@H]1c1ccccc1N [Example 158] | 12 µg/mL
COc1ccccc1[C@@H]1C2=C(CNC2=O)N[C@@H]2CCCC[C@H]2N1C(=O)CCc1ncco1 [Example 166] | 0.064 µg/mL
CCOCC(=O)N1[C@@H]2CCCC[C@H]2NC2=C(C(=O)NC2)[C@H]1c1ccccc1OCc1ccccc1 [Example 102] | 4 µg/mL
CCc1ccccc1[C@@H]1C2=C(CNC2=O)N[C@@H]2CCCC[C@H]2N1C(=O)OC [Example 132] | 4 µg/mL
CCC(=O)N1[C@@H]2CCCC[C@H]2NC2=C(C(=O)NC2)[C@H]1c1ccccc1F [Example 149] | 2 µg/mL
COC(=O)CC(=O)N1[C@@H]2CCCC[C@H]2NC2=C(C(=O)NC2)[C@H]1c1ccccc1Br [Example 136] | 1.5 µg/mL
CCNC(=O)N1[C@@H]2CCCC[C@H]2NC2=C(C(=O)NC2)[C@H]1c1ccccc1OCC [Example 97] | 12 µg/mL

Compound | A: sugar transporting activity (EC50)
COC(=O)N1[C@@H]2CCCC[C@H]2NC2=C(C(=O)NC2)[C@H]1c1ccccc1 [Example 156] | 2 µg/mL
COc1ccccc1[C@@H]1C2=C(CNC2=O)N[C@@H]2CCCC[C@H]2N1C(C)=O [Example 45] | 1.3 µg/mL
CCOc1ccccc1[C@@H]1C2=C(CNC2=O)N[C@@H]2CCCC[C@H]2N1C(=O)CCc1ncco1 [Example 167] | 0.10 µg/mL
CCOc1ccccc1[C@@H]1C2=C(CNC2=O)N[C@@H]2CCCC[C@H]2N1C(C)=O [Example 87] | 15 µg/mL
COc1ccccc1[C@@H]1C2=C(CNC2=O)N[C@@H]2CCCC[C@H]2N1C(=O)CCc1ncccn1 [Example 177] | 0.10 µg/mL
CCNC(=O)N1[C@@H]2CCCC[C@H]2NC2=C(C(=O)NC2)[C@H]1c1ccccc1OC [Example 84] | 3.6 µg/mL
COc1ccccc1[C@@H]1C2=C(CNC2=O)N[C@@H]2CCCC[C@H]2N1C(=O)CCSC [Example 71] | 2.6 µg/mL
CCOCC(=O)N1[C@@H]2CCCC[C@H]2NC2=C(C(=O)NC2)[C@H]1c1ccccc1Cl [Example 145] | 10.7 µg/mL
COCC(=O)N1[C@@H]2CCCC[C@H]2NC2=C(C(=O)NC2)[C@H]1c1ccccc1C [Example 122] | 6 µg/mL
Cc1ccccc1[C@@H]1C2=C(CNC2=O)N[C@@H]2CCCC[C@H]2N1C(=O)C(F)(F)F [Example 117] | 6 µg/mL
CC(=O)N1[C@@H]2CCCC[C@H]2NC2=C(C(=O)NC2)[C@H]1c1ccc(Br)cc1 [Example 161] | 17 µg/mL
COc1ccccc1[C@@H]1C2=C(CNC2=O)N[C@@H]2CCCC[C@H]2N1C(=O)Oc1ccccc1 [Example 83] | 11 µg/mL
COc1ccccc1[C@@H]1C2=C(CNC2=O)N[C@@H]2CCCC[C@H]2N1C(=O)c1ccccn1 [Example 76] | 10 µg/mL
COCC(=O)N1[C@@H]2CCCC[C@H]2NC2=C(C(=O)NC2)[C@H]1c1ccccc1Br [Example 138] | 6 µg/mL
CCOC(=O)N1[C@@H]2CCCC[C@H]2NC2=C(C(=O)NC2)[C@H]1c1ccccc1OCC [Example 96] | 7 µg/mL
CCOCC(=O)N1[C@@H]2CCCC[C@H]2NC2=C(C(=O)NC2)[C@H]1c1ccccc1C [Example 119] | 4 µg/mL
CC(=O)N1[C@@H]2CCCC[C@H]2NC2=C(C(=O)NC2)[C@H]1c1ccccc1OC(C)C [Example 98] | 14 µg/mL
COCC(=O)N1[C@@H]2CCCC[C@H]2NC2=C(C(=O)NC2)[C@H]1c1ccccc1OC [Example 53] | 2 µg/mL
CCOCC(=O)N1[C@@H]2CCCC[C@H]2NC2=C(C(=O)NC2)[C@H]1c1ccc(F)cc1OC [Example 108] | 7.8 µg/mL
COc1ccccc1[C@@H]1C2=C(CNC2=O)N[C@@H]2CCCC[C@H]2N1C(=O)CC(F)(F)F [Example 49] | 0.47 µg/mL
